# In US6258776A, “Calcium-regulated kinase” (priority 1997, dated 2001):
# How the values were obtained:
# calmodulin (CaM-agarose) = assay: binding of Ndr and deletion mutants from COS-1 cell lysates to CaM-agarose
# Source text: In addition, the ability of untagged Ndr to interact with CaM is investigated. COS-1 cells are transfected with pECE or with derivative plasmids encoding wild-type Ndr, NdrΔ65-81 or NdrΔ1-84 (Millward, T. A., et al., (1995) Proc. Natl. Acad. Sci. USA 92, 5022-5026) using DEAE-dextran (Seed, B. and Aruffo, A. (1987) Proc. Natl. Acad. Sci. USA 84, 3365-3369). Seventy-two hours after transfection, cells are scraped into ice-cold phosphate-buffered saline (PBS), spun down, and disrupted in buffer A (TBS containing 1 mM dithiothreitol, 0.5 mM phenylmethylsulfonyl fluoride, 4 μM leupeptin and 1 mM benzamidine) using a tight-fitting all-glass dounce homogenizer. Extracts (20 μg) are adjusted to 1 mg/ml, supplemented with either 1 mM CaCl2 or 1 mM EGTA and then mixed for 2 h with 6 μl CaM-agarose. After washing three times with 1 ml of the corresponding binding buffer, the beads are eluted with buffer A containing 5 mM EGTA. Equal portions of the unbound and EGTA-eluted fractions are analysed by immunoblofting with anti-Ndr antibodies.
# Samples are separated by SDS-PAGE and electroblotted to Immobilon-P membranes (Millipore). Blots are incubated in blocking buffer (50 mM Tris-HCl pH 7.5, 150 mM NaCl, 1% (v/v) Triton X-1 00, 0.5% (v/v) Tween 20, 5% (w/v) skim milk powder) and then probed for 2 h with primary antibodies diluted in the same buffer. Ndr and GST-Ndr are detected with Ab^452-465 at 4 μg/ml (Millward, T. A., et al., Op. Cit.); GST is detected with an anti-GST antiserum (1 :1000 dilution). Bound antibodies are detected using horseradish peroxidase-conjugated donkey anti-rabbit IgG antibodies and ECL substrates (Amersham).
# To verify whether this domain of Ndr is indeed responsible for its interaction with CaM, deletion mutants of Ndr are expressed in COS-1 cells and tested for CaM binding as above. […] In lysates supplemented with Ca^2 , deletion of amino acids 65-81 cause a large reduction in CaM binding (to ~10% of the level of wild-type binding) as assessed by western blotting.
# S100B = assay: co-immunoprecipitation of Ndr with anti-S100B from COS-1 cells; assay type: cell-based; conditions: co-expressed with S100B
# Description: For expression of Ndr and S100B in mammalian cells, the cDNAs encoding Ndr and S100B are cloned into the pECE vector, which directs expression driven by an SV40-derived promoter. In addition, an amino-terminal truncation mutant of Ndr lacking the first 84 amino acids (1-84) is used.
# The plasmids encoding Ndr and S100B are transfected into COS-1 cells, either alone or in combination. Seventy-two hours later, cells extracts are prepared and immunoprecipitated with an antibody recognising S100B. In an anti-Ndr western blot of the cell extracts, it is shown that Ndr is expressed an expected.
# calmodulin = conditions: cited from earlier work
substance,measurement,setting,value
Ndr: nuclear serine/threonine protein kinase,binding to CaM-agarose,calmodulin (CaM-agarose); lysate supplemented with EGTA,no detectable binding
same,binding to CaM-agarose,calmodulin (CaM-agarose); lysates supplemented with Ca^2+,quantitatively and selectively removed from the lysate by CaM-agarose
same,co-immunoprecipitation with anti-S100B,S100B,anti-S100B antibodies co-immunoprecipitated Ndr
same,binding to calmodulin,calmodulin,capable of binding to calmodulin
